According to ChEMBL document CHEMBL3352455, “Small molecule disruptors of the glucokinase-glucokinase regulatory protein interaction: 4. Exploration of a novel binding pocket” (J Med Chem, 2014):

Columns and labels:
[1] = Fraction unbound in Sprague-Dawley rat plasma; assay type: ADME, cell-free
[2] = AUC in Sprague-Dawley rat at 10 mg/kg, po; assay type: ADME, organism-based; parameters: dose 10 mg/kg, route oral; details: plasma
[3] = Oral bioavailability in Sprague-Dawley rat at 10 mg/kg; assay type: ADME, organism-based; details: in vivo
Cytochrome P450 2D6 = Cytochrome P450 2D6 (Homo sapiens, UniProt P10635); assay: Inhibition of CYP2D6 (unknown origin); assay type: ADME
Chain of Cytochrome P450 2D6 (P10635 whole entry): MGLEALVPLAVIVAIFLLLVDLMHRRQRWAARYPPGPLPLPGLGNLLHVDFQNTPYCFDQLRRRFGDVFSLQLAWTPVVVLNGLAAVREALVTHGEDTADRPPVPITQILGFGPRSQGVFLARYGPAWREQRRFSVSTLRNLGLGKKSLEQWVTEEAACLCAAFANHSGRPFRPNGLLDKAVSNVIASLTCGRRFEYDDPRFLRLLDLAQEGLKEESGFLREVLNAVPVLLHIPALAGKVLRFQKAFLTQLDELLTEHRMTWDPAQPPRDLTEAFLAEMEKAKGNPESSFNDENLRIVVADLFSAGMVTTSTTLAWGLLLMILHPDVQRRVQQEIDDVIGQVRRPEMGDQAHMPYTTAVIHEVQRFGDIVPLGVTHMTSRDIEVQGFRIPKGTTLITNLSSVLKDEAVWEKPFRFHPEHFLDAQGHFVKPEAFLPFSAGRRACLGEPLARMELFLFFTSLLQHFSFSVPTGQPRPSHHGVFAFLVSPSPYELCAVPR

Hexokinase-4 = molecular target: T1, Hexokinase-4 (Homo sapiens, UniProt P35557); assay: Inhibition of fluorescein-labeled human GK interaction with biotin-labeled human GKRP compound incubated for 20 mins prior to addition of fluorescein-labeled GK measured after 2 to 4 hrs by AlphaScreen assay
T1 sequence (P35557 whole entry): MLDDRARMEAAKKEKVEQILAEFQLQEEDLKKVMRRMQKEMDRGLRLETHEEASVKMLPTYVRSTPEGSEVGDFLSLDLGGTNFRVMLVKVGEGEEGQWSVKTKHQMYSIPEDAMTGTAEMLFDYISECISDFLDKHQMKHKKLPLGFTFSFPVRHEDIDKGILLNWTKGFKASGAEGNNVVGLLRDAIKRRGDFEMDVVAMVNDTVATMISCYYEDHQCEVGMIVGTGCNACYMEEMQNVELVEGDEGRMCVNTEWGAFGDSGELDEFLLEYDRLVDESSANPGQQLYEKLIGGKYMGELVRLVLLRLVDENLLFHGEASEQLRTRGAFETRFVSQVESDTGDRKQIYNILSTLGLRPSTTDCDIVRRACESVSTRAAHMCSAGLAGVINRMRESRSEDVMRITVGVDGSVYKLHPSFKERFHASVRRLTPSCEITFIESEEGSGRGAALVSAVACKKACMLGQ

[4] = Clearance in Sprague-Dawley rat at 2 mg/kg, iv; assay type: ADME, organism-based; parameters: dose 2 mg/kg, route intravenous; details: in vivo
[5] = Intrinsic clearance in human liver microsomes at 1 uM after 30 mins in presence of NADPH; assay type: ADME; details: read-out: CLH
[6] = Intrinsic clearance in rat liver microsomes at 1 uM after 30 mins in presence of NADPH; assay type: ADME; details: read-out: CLH
[7] = Volume of distribution at steady state in Sprague-Dawley rat at 2 mg/kg, iv; assay type: ADME, organism-based; parameters: dose 2 mg/kg, route intravenous; details: in vivo, read-out: Vdss
[8] = Mean residence time in Sprague-Dawley rat at 2 mg/kg, iv; assay type: ADME, organism-based; parameters: dose 2 mg/kg, route intravenous; details: in vivo
Cytochrome P450 3A4 = Cytochrome P450 3A4 (Homo sapiens, UniProt P08684); assay: Inhibition of CYP3A4 (unknown origin); assay type: ADME
Chain of Cytochrome P450 3A4 (P08684 whole entry): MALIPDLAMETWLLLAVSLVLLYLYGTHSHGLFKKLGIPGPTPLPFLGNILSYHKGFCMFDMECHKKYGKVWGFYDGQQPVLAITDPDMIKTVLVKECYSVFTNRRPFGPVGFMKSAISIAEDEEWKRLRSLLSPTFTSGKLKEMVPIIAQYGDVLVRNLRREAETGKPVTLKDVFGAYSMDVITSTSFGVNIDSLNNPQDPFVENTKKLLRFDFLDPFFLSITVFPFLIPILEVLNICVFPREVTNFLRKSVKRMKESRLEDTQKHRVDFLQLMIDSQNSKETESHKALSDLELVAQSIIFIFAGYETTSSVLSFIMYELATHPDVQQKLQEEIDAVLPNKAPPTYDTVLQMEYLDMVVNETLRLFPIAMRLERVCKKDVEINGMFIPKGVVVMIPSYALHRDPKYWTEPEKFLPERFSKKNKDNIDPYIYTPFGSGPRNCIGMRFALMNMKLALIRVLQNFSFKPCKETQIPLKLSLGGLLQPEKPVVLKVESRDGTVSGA

Mus musculus = assay: Antidiabetic activity in insulin-resistant db/db mouse assessed as reduction of fed blood glucose level at 10 to 100 mg/kg, po measured at 6 hrs relative to vehicle-treated control; assay type: functional; parameters: scale not given: the % may be the effect or the level left; details: dose mg/kg 10-100

fraction unbound [1] | AUC [2] [µM·h] | bioavailability [3] [%] | IC50 (Cytochrome P450 2D6) [µM] | IC50 (Hexokinase-4) [µM] | clearance [4] [mL/min/kg] | microsomal CLint at 1 µM [5] [µL/min/mg] | microsomal CLint at 1 µM [6] [µL/min/mg] | Vd [7] [L/kg] | MRT [8] [h] | IC50 (Cytochrome P450 3A4) [µM] | Compound | Activity (Mus musculus) [%]
0.011 | 2.8 | 30 | 18 | 0.001 | 33.3 | 19 | 44 | 2.57 | 1.34 | 27 | Cn1cc(-c2cc(C(O)(C(F)(F)F)C(F)(F)F)cnc2N2CCN(S(=O)(=O)c3ccc(N)nc3)CC2)cn1 | –
0.021 | 4.74 | 43 | 27 | 0.005 | 25 | 17 | 20 | 3.36 | 2.18 | 27 | Nc1ccc(S(=O)(=O)N2CCN(c3ncc(C(O)(C(F)(F)F)C(F)(F)F)cc3-c3cccnc3)CC2)cn1 | 25
